Source: US9193673B2, “Derivatives of mesalazine, process of their preparation and their use in the treatment of intestinal inflammatory diseases” (SOFAR SPA, priority 2010, dated 2015)
Several values for one entry are separate records, joined by “and”; a condition that tells them apart may be missing. Identical values can stand only once. Entries after “also recorded” stand apart in the source; their conditions may differ. Like-named read-outs stand apart in the source and are kept apart here.

Assays:
[1] = In vivo pharmacokinetic in the rat after i.v. and p.o. administration of compound (IV)
[2] = Stability in human plasma (hydrolysis by plasma esterases); format: in vitro ADME
Protocol: (§1) Such study is conducted with the aim of evaluating possible hydrolysis of the compound (IV) by the plasma esterases. The percentage of hydrolysis of the compound (IV) is compared to that of known reference standards.

[3] = Stability in rat plasma (hydrolysis by plasma esterases); format: in vitro ADME
Protocol: as §1

[4] = Stability of the compound (IV) in storage at 25° C. (60% RH) and at 40° C. (75% RH); format: physicochemical; details: for Titre % Mean / Titre %: 3 months; for Titre % Mean: mean of samples; for Titre %: single samples
Protocol: The object of such study is the evaluation of the stability of the compound (IV) kept at a temperature equivalent to 25° C. (60% RH) and at 40° C. (75% RH). In particular, such study aims at evaluating the titre of the compound (IV) in the stability test at 25° C. (60% RH) at 3, 6, 9, 12, 18, 24, 36, 48, 60 months and in the stability test accelerated at 40° C. (75% RH) at 3, 6, 9, 12 months.
The compound (IV) is divided into 10 Eppendorfs numbered from 1 to 10, containing about 50 mg of product and stored in a cellar at 25° C. 60% RH.
Other 4 Eppendorfs numbered from 11 to 14, containing about 50 mg of product are introduced into an oven at a temperature equivalent to 40° C. 75% RH.

[5] = Stability in simulated gastric and simulated intestinal fluids; format: physicochemical
Protocol: Such study is conducted with the aim of evaluating the stability of the compound (IV) at […] in absence of enzymes of the intestinal bacterial flora.
(§2) The stability of the compound (IV) is compared to that of known reference standards.

[6] = Stability in murine intestinal homogenate; format: in vitro ADME, rat
Protocol: Such study is conducted with the aim of evaluating the stability of the compound (IV) in intestinal homogenate.
as §2

[7] = Hydrolysis in rat intestine preserved in different conditions; format: in vitro ADME
Protocol: Such study is conducted with the aim of surveying the stability of the compound (IV) in rat intestine homogenate preserved in different conditions: frozen at […] and at −80° C.
as §2

[8] = Permeability on the Caco2 cellular line; format: in vitro ADME; details: human, Caco-2, Caco2
Protocol: (§3) Such study is conducted with the aim of evaluating the capacity of the molecule to permeate the intestinal epithelium and be absorbed thereby evaluating the Papp (apparent permeability coefficient). The Papp of the compound (IV) is compared to that of the known reference standards.

Caco2 cellular line = test: Permeability on the Caco2 cellular line; format: in vitro ADME
Protocol: as §3

[9] = compound (IV) i.v. 5 mg/kg, rat, individual rats
[10] = compound (IV) i.v. 5 mg/kg, rat, individual rats, 5 mg/kg
[11] = compound (IV) oral gavage 50 mg/kg, rat, individual rats, 50 mg/kg

SMILES: CCCC(=O)Oc1ccc(N)cc1C(=O)O.Cl [Compound (IV), 5-amino-2-(butyryloxy)benzoic acid]
- Pharmacokinetic parameters ([1]; administered p.o. and i.v. in rats): good pharmacokinetic parameters
- Metabolism in vivo ([1]; after i.v. and p.o. treatment, rat): metabolised quickly
- Tlast [1, 9]: 1440 min
- Tmax [1, 9]: 2 min
- AUCinf [1, 10]: 18700 ng·min/mL and 22424 ng·min/mL
- AUClast [1, 10]: 17271 ng·min/mL and 21300 ng·min/mL
- Cl [1, 10]: 229.9 mL/min/kg and 191.8 mL/min/kg
- Clast [1, 10]: 1.8 ng/mL and 1.7 ng/mL
- Cmax [1, 10]: 529 ng/mL and 851.2 ng/mL
- MRT [1, 10]: 209 min and 175 min
- T½ [1, 10]: 547.1 min and 451.8 min
- Vdss [1, 10]: 115.3 L/kg and 51.9 L/kg
- Tlast Mean ([1]; compound (IV) i.v. 5 mg/kg, rat, mean): 1440 min
- AUCinf [1, 11]: 3985 ng·min/mL and 5954 ng·min/mL
- AUClast [1, 11]: 3943 ng·min/mL and 5925 ng·min/mL
- Clast [1, 11]: 2.9 ng/mL and 0.8 ng/mL and 1.3 ng/mL
- Cmax [1, 11]: 104 ng/mL and 174 ng/mL
- MRTlast [1, 11]: 48 min and 32 min and 23 min
- Tlast [1, 11]: 240 min (2×) and 120 min
- Tmax [1, 11]: 30 min and 15 min and 5 min
- Tlast Mean ([1]; compound (IV) oral gavage 50 mg/kg, rat, mean): 200 min
- bioavailability ([1]; plasma, oral gavage 50 mg/kg vs i.v. 5 mg/kg, rat, read-out: Mean Fpo 0_inf (%) (mean p.o. bioavailability)): 2.4%
- AUC(0-inf) ([1]; rat, plasma, iv, 5 mg/kg, compound (IV) i.v. 5 mg/kg, rat, individual rats, read-out: AUCinf (converted)): 341 ng·h/mL
- AUC(0-t) ([1]; rat, plasma, iv, 5 mg/kg, compound (IV) i.v. 5 mg/kg, rat, individual rats, read-out: AUClast (converted)): 296 ng·h/mL
- clearance ([1]; rat, plasma, iv, 5 mg/kg, compound (IV) i.v. 5 mg/kg, rat, individual rats, read-out: Cl): 210 mL/min/kg
- concentration at 1440 min ([1]; rat, plasma, iv, 5 mg/kg, compound (IV) i.v. 5 mg/kg, rat, individual rats, read-out: Clast): 2.9 ng/mL
- Cmax ([1]; rat, plasma, iv, 5 mg/kg, compound (IV) i.v. 5 mg/kg, rat, individual rats, read-out: Cmax): 598 ng/mL
- MRT ([1]; rat, plasma, iv, 5 mg/kg, compound (IV) i.v. 5 mg/kg, rat, individual rats, read-out: MRT (converted)): 273 min
- Tmax ([1]; rat, plasma, iv, 5 mg/kg, compound (IV) i.v. 5 mg/kg, rat, individual rats, read-out: Tmax (converted)): 2 min
- half-life ([1]; rat, plasma, iv, 5 mg/kg, compound (IV) i.v. 5 mg/kg, rat, individual rats, read-out: T½): 638 min
- AUC(0-inf) ([1]; rat, plasma, iv, 5 mg/kg, compound (IV) i.v. 5 mg/kg, rat, mean, read-out: AUCinf Mean (converted)): 342 ng·h/mL
- AUC(0-t) ([1]; rat, plasma, iv, 5 mg/kg, compound (IV) i.v. 5 mg/kg, rat, mean, read-out: AUClast Mean (converted)): 313 ng·h/mL
- clearance ([1]; rat, plasma, iv, 5 mg/kg, compound (IV) i.v. 5 mg/kg, rat, mean, read-out: Cl Mean): 211 mL/min/kg
- concentration at 1440 min ([1]; rat, plasma, iv, 5 mg/kg, compound (IV) i.v. 5 mg/kg, rat, mean, read-out: Clast Mean): 2.1 ng/mL
- Cmax ([1]; rat, plasma, iv, 5 mg/kg, compound (IV) i.v. 5 mg/kg, rat, mean, read-out: Cmax Mean): 659 ng/mL
- MRT ([1]; rat, plasma, iv, 5 mg/kg, compound (IV) i.v. 5 mg/kg, rat, mean, read-out: MRT Mean (converted)): 219 min
- Tmax ([1]; rat, plasma, iv, 5 mg/kg, compound (IV) i.v. 5 mg/kg, rat, mean, read-out: Tmax Mean (converted)): 2 min
- half-life ([1]; rat, plasma, iv, 5 mg/kg, compound (IV) i.v. 5 mg/kg, rat, mean, read-out: T½ Mean): 546 min
- Vd ([1]; rat, plasma, iv, 5 mg/kg, compound (IV) i.v. 5 mg/kg, rat, mean, read-out: Vdss Mean): 83.5 L/kg
- concentration at 200 min ([1]; rat, plasma, oral, 50 mg/kg, compound (IV) oral gavage 50 mg/kg, rat, mean, read-out: Clast Mean): 2.8 ng/mL
- concentration at 4 h ([1]; rat, plasma, po, 50 mg/kg, after p.o. administration, rat, 4 hours): 1 ng/mL
- Cmax ([1]; rat, plasma, po, 50 mg/kg, after p.o. administration, rat, read-out: Cmax): 95 ng/mL
- AUC(0-inf) ([1]; rat, plasma, po, 50 mg/kg, compound (IV) oral gavage 50 mg/kg, rat, individual rats, read-out: AUCinf (converted)): 76.5 ng·h/mL
- AUC(0-t) ([1]; rat, plasma, po, 50 mg/kg, compound (IV) oral gavage 50 mg/kg, rat, individual rats, read-out: AUClast (converted)): 67.4 ng·h/mL
- Cmax ([1]; rat, plasma, po, 50 mg/kg, compound (IV) oral gavage 50 mg/kg, rat, individual rats, read-out: Cmax): 89 ng/mL
- AUC(0-inf) ([1]; rat, plasma, po, 50 mg/kg, compound (IV) oral gavage 50 mg/kg, rat, mean, read-out: AUCinf Mean (converted)): 80.7 ng·h/mL
- AUC(0-t) ([1]; rat, plasma, po, 50 mg/kg, compound (IV) oral gavage 50 mg/kg, rat, mean, read-out: AUClast Mean (converted)): 77.3 ng·h/mL
- Cmax ([1]; rat, plasma, po, 50 mg/kg, compound (IV) oral gavage 50 mg/kg, rat, mean, read-out: Cmax Mean): 122 ng/mL
- MRT last ([1]; rat, plasma, po, 50 mg/kg, compound (IV) oral gavage 50 mg/kg, rat, mean, read-out: MRTlast Mean (converted)): 35 min
- Tmax ([1]; rat, plasma, po, 50 mg/kg, compound (IV) oral gavage 50 mg/kg, rat, mean, read-out: Tmax Mean (converted)): 16.7 min
- % Residue at 60 min ([2]; Human plasma, 60 min): 32.7 ± 2.6%
- Hydrolysis in plasma ([2]; human plasma): high hydrolysis percentage
- % hydrolysed ([2]; human plasma, after 1 hour of incubation): 67.3%
- % Residue at 60 min ([3]; Rat plasma, 60 min): 8.5 ± 2.0%
- Hydrolysis in plasma ([3]; murine plasma): high hydrolysis percentage
- % hydrolysed ([3]; murine plasma, after 1 hour of incubation): 91.5%
- Stability in storage ([4]; 25° C. 60% RH and 40° C. 75% RH): does not seem to be subjected to considerable modifications; also recorded: stable in storage
- Titre % Mean ([4]; 25° C. 60% RH): 98.1%
- Titre % ([4]; 25° C. 60% RH): 98.2% and 98.1%
- Titre % Mean ([4]; 40° C. 75% RH): 101.2%
- Titre % ([4]; 40° C. 75% RH): 99.8% and 102.6%
- Titre ([4]; time t=0): 99.3%
- % Residue ([5]; SGF, 30 min incubation): 97.3 ± 1.1%
- % Residue ([5]; SGF, 60 min incubation): 99.9 ± 0.9%
- % Residue ([5]; SIF, 30 min incubation): 97.4 ± 4.1%
- % Residue ([5]; SIF, 60 min incubation): 103.2 ± 3.5%
- Stability in SIF and SGF ([5]; both media): stable in both media
- Stability in the rat intestine ([6]; rat intestinal homogenate): very unstable in the rat intestine; also recorded: quickly metabolised in the rat intestine
- Residue percentage ([6]; rat intestinal homogenate, 25 μM, 30 min): 9.8 ± 1.1%
- Residue percentage ([6]; rat intestinal homogenate, 25 μM, 1 hr): 12.2 ± 1.6%
- Residue percentage ([6]; rat intestinal homogenate, 25 μM, 2 hrs): 10.1 ± 4.4%
- Residue percentage ([6]; rat intestinal homogenate, 25 μM, 4 hrs): 24.5 ± 1.3(*) %
- Residue percentage ([6]; rat intestinal homogenate, 50 μM, 30 min): 5.6 ± 0.6%
- Residue percentage ([6]; rat intestinal homogenate, 50 μM, 1 hr): 4.4 ± 1.1%
- Residue percentage ([6]; rat intestinal homogenate, 50 μM, 2 hrs): 7.3 ± 1.0%
- Residue percentage ([6]; rat intestinal homogenate, 50 μM, 4 hrs): 5.5 ± 1.1%
- Hydrolysis ([6]; tested at two concentrations (25 and 50 μM)): 90-95%
- Metabolism in fresh rat intestine homogenate ([7]; fresh homogenate): metabolised quickly
- Stability in rat intestine (residue %) ([7]; fresh homogenate, 15 min): 0.030 ± 0.015%
- Stability in rat intestine (residue %) ([7]; fresh homogenate, 30 min): 0.031 ± 0.004%
- Stability in rat intestine (residue %) ([7]; fresh homogenate, 60 min): 0.047 ± 0.021%
- Stability in rat intestine (residue %) ([7]; homogenate 4° C., 15 min): 0.046 ± 0.004%
- Stability in rat intestine (residue %) ([7]; homogenate 4° C., 30 min): 0.046 ± 0.022%
- Stability in rat intestine (residue %) ([7]; homogenate 4° C., 60 min): 0.064 ± 0.008%
- Stability in rat intestine (residue %) ([7]; homogenate −80° C., 15 min): 0.024 ± 0.007%
- Stability in rat intestine (residue %) ([7]; homogenate −80° C., 30 min): 0.034 ± 0.001%
- Stability in rat intestine (residue %) ([7]; homogenate −80° C., 60 min): 0.470 ± 0.012%
- Stability in rat intestine (residue %) ([7]; intestine −80° C., 15 min): 0.145 ± 0.029%
- Stability in rat intestine (residue %) ([7]; intestine −80° C., 30 min): 0.091 ± 0.038%
- Stability in rat intestine (residue %) ([7]; intestine −80° C., 60 min): 0.098 ± 0.002%
- Papp A→B ([8]; Apical (pH 6.5) → Basolateral (pH 7.4), read-out: Papp A→B (nm/sec) Mean ± SD): 0.59 ± 0.12 ×10⁻⁶ cm/s
- Papp B→A ([8]; B→A, read-out: Papp B→A (nm/sec) Mean ± SD): 0.24 ± 0.03 ×10⁻⁶ cm/s
- A→B Mean mass balance % (Caco2 cellular line; A→B, Caco2): 69%
- B→A Mean mass balance % (Caco2 cellular line; B→A, Caco2): 99%
- BA/AB ratio (Caco2 cellular line; Caco2): 0.41
- Permeability (Caco2 cellular line; Caco2): poor permeability
- BA/AB ratio (Caco2 cellular line; Caco2, listed as compound (IV)): < 1
- Substrate of P-gp (glycoprotein P) (Caco2 cellular line; from BA/AB ratio, Caco2): does not seem to be a substrate of P-gp
- Permeability class (Caco2 cellular line; through the basolateral membrane of the Caco2 cell line): low
